Results on 23 compounds are retold here after patent US10294212B2 (CURADEV PHARMA PRIVATE LTD., priority 2013, dated 2019).

In assay [1] the target is Human indoleamine 2,3-dioxygenase1 (hIDO1) (Homo sapiens (Human), UniProt P14902). Kind of assay: In-vitro IDO1 enzyme assay (conversion of L-tryptophan to KYN). The assay is classed as biochemical. Particulars: read-out: IC50 (IDO1) Enz. A digest of the protocol:
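Kynurenine formation quantified by HPLC absorbance at 360 nm or LC/MS/MS after TCA quench and 15 min at 65 °C. Reaction: 10 nM N-His hIDO1, 30 μM tryptophan, ascorbate/methylene blue/catalase, pH 6.5 phosphate buffer, 37 °C for 30 min. Inhibition relative to 1% DMSO vehicle, fitted to IC50.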

Assay [2] addresses IDO1 in HeLa cells (Homo sapiens (Human), UniProt P14902). Kind of assay: HeLa cell based IDO1 assay (IFNγ-induced, KYN in supernatant). Summed up:
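Kynurenine in the supernatant, quantified by C-18 HPLC with 360 nm absorbance after TCA hydrolysis (65 °C, 15 min), was the read-out. Compounds (typically 10 μM to 1 nM) were added in HBSS containing 80 μM tryptophan to HeLa cells pre-induced overnight with 50 ng/mL IFNγ. IC50 came from nonlinear fits of % inhibition versus 1% DMSO vehicle.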

Assay [3] concerns the target Human TDO (hTDO)-transfected CHO-K1 cells (Homo sapiens (Human), UniProt P48775). Kind of assay: CHO-K1 cell based TDO assay. Conditions: hTDO cellular assay. A digest of the protocol:
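Kynurenine output was read by LC/MS/MS after TCA precipitation and 15 min at 65° C. Before that, CHO-K1 cells stably carrying human TDO2 were incubated 2 h with compounds (typically 31 μM to 10 nM) and 80 μM L-tryptophan in HBSS. Decrease versus DMSO vehicle gave percent inhibition, then IC50.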

Sequence of IDO1 in HeLa cells (P14902 whole entry): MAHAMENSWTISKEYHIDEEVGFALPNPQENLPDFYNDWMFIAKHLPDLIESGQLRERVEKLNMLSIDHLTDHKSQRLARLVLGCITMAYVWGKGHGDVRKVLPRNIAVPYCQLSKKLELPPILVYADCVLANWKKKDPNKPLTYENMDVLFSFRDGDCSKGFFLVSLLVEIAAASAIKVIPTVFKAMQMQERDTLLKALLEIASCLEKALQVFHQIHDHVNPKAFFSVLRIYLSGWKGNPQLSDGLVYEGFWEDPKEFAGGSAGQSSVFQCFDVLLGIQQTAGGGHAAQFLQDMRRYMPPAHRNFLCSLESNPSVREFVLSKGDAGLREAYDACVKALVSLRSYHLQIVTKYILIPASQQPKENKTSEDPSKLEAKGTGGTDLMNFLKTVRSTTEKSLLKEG
Sequence of Human indoleamine 2,3-dioxygenase1 (hIDO1) (P14902 whole entry): as above
Sequence of Human TDO (hTDO)-transfected CHO-K1 cells (P48775 whole entry): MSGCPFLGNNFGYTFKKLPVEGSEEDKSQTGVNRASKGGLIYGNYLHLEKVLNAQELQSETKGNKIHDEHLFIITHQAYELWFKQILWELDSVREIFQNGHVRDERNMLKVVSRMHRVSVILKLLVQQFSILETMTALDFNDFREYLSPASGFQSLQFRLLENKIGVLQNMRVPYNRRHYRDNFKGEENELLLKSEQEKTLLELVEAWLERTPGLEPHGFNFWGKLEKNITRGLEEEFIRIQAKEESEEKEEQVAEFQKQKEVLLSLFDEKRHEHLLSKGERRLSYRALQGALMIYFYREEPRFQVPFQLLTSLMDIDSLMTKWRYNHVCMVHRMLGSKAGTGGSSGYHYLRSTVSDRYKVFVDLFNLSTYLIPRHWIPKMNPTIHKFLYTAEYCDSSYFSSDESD

Turning to `COc1cc2c(Nc3ccc(F)c(Cl)c3)c(N)oc2c(Br)n1` [Compound 172, 7-Bromo-N^3-(3-chloro-4-fluorophenyl)-5-methoxyfuro[2,3-c]pyridine-2,3-diamine], the figures for the IC50 in assay [1], in assay [2] and in assay [3] were < 200 nM, < 200 nM and > 2000 nM, respectively.

For `COc1cc2c(Nc3ccc(F)c(Cl)c3)c(N)oc2c(-c2ccc(C#N)cc2)n1` [Compound 173, 4-(2-Amino-3-((3-chloro-4-fluorophenyl)amino)-5-methoxyfuro[2,3-c]pyridin-7-yl)benzonitrile], the IC50 (in general, the concentration that inhibits the measured activity by half) in assay [1] was < 200 nM; in assay [2], < 200 nM; in assay [3], > 2000 nM.

As to `COc1cc2c(Nc3ccc(F)c(Cl)c3)c(N)oc2c(-c2ccc(F)cc2)n1` [Compound 174, N^3-(3-chloro-4-fluorophenyl)-7-(4-fluorophenyl)-5-methoxyfuro[2,3-c]pyridine-2,3-diamine], the IC50 is < 200 nM in assay [1], 200 to 1000 nM in assay [2] and 500 to 2000 nM in assay [3].

For `COc1cc2c(Nc3ccc(F)c(Cl)c3)c(N)oc2c(-c2ccc(C(N)=O)cc2)n1` [Compound 175, 4-(2-amino-3-((3-chloro-4-fluorophenyl)amino)-5-methoxyfuro[2,3-c]pyridin-7-yl)benzamide], the results for the IC50 in assay [1], in assay [2] and in assay [3] were < 200 nM, < 200 nM and > 2000 nM, respectively.

For the compound `Nc1oc2c(F)nccc2c1Nc1ccc(F)c(Cl)c1` [Compound 176, N^3-(3-chloro-4-fluorophenyl)-7-fluorofuro[2,3-c]pyridine-2,3-diamine], the IC50 was < 200 nM in assay [1], < 200 nM in assay [2] and < 500 nM in assay [3].

Turning to `Nc1oc2cnc(Cl)cc2c1Nc1ccc(F)c(Cl)c1` [Compound 177, 5-Chloro-N3-(3-chloro-4-fluorophenyl)furo[2,3-c]pyridine-2,3-diamine], the IC50 in assay [1] is < 200 nM; in assay [2], < 200 nM; in assay [3], 500 to 2000 nM.

As to `Nc1oc2cc([N+](=O)[O-])ccc2c1Nc1ccc(F)c(Cl)c1` [Compound 179, N^3-(3-chloro-4-fluorophenyl)-6-nitrobenzofuran-2,3-diamine], the figures for the IC50 in assay [1], in assay [2] and in assay [3] were < 200 nM, < 200 nM and 500 to 2000 nM, respectively.

`Nc1oc2c(-c3ccncc3)nc(F)cc2c1Nc1ccc(F)c(Cl)c1` [Compound 180, N^3-(3-Chloro-4-fluorophenyl)-5-fluoro-7-(pyridin-4-yl)furo[2,3-c]pyridine-2,3-diamine]: the results for the IC50 in assay [1], in assay [2] and in assay [3] were < 200 nM, < 200 nM and 500 to 2000 nM, respectively.

As for `Nc1oc2cnc(F)cc2c1Nc1ccc(F)c(Cl)c1` [Compound 181, N^3-(3-Chloro-4-fluorophenyl)-5-fluorofuro[2,3-c]pyridine-2,3-diamine], the IC50 in assay [1] is < 200 nM; in assay [2] it was < 200 nM; in assay [3], < 500 nM.

On to `N#Cc1nccc2c(Nc3ccccc3Cl)c(N)oc12` [Compound 182, 2-Amino-3-((2-chlorophenyl)amino)furo[2,3-c]pyridine-7-carbonitrile], for which the IC50 in assay [1] is < 200 nM; in assay [2] it was < 200 nM; in assay [3], > 2000 nM.

With `N#Cc1nccc2c(Nc3ccc(F)c(C(F)(F)F)c3)c(N)oc12` [Compound 183, 2-Amino-3-((4-fluoro-3-(trifluoromethyl)phenyl)amino)furo[2,3-c]pyridine-7-carbonitrile], the IC50 in assay [1] is < 200 nM; in assay [2] it was < 200 nM; in assay [3], 500 to 2000 nM.

As to `N#Cc1nccc2c(Nc3ccc(F)c(F)c3)c(N)oc12` [Compound 185, 2-Amino-3-((3,4-difluorophenyl)amino)furo[2,3-c]pyridine-7-carbonitrile], the IC50 in assay [1] is 200 to 1000 nM; in assay [2] it was < 200 nM; in assay [3] it was < 500 nM.

For the compound `N#Cc1nccc2c(Nc3cc(F)cc(F)c3)c(N)oc12` [Compound 186, 2-Amino-3-((3,5-difluorophenyl)amino)furo[2,3-c]pyridine-7-carbonitrile], the IC50 in assay [1] was > 1000 nM; in assay [2] it was > 1000 nM; in assay [3] it was 500 to 2000 nM.

Take `Nc1oc2c(-c3ccncc3)nccc2c1Nc1cc(F)cc(F)c1` [Compound 187, N^3-(3,5-Difluorophenyl)-7-(pyridin-4-yl)furo[2,3-c]pyridine-2,3-diamine]: the figures for the IC50 in assay [1], in assay [2] and in assay [3] were 200 to 1000 nM, < 200 nM and < 500 nM, respectively.

For `Nc1oc2c(-c3ccncc3)nc(F)cc2c1Nc1ccc(F)c(F)c1` [Compound 188, N^3-(3,4-Difluorophenyl)-5-fluoro-7-(pyridin-4-yl)furo[2,3-c]pyridine-2,3-diamine], the values for the IC50 in assay [1], in assay [2] and in assay [3] were < 200 nM, < 200 nM and 500 to 2000 nM, respectively.

For `Nc1oc2c(F)nccc2c1Nc1ccc(F)c(C(F)(F)F)c1` [Compound 189, 7-Fluoro-N^3-(4-fluoro-3-(trifluoromethyl)phenyl)furo[2,3-c]pyridine-2,3-diamine], the concentration for half-maximal inhibition (IC50) in assay [1] was < 200 nM; in assay [2], < 200 nM; in assay [3], 500 to 2000 nM.

Turning to `Nc1oc2c(F)nc(F)cc2c1Nc1ccc(F)c(Cl)c1` [Compound 190, N^3-(3-Chloro-4-fluorophenyl)-5,7-difluorofuro[2,3-c]pyridine-2,3-diamine], the IC50 in assay [1] was < 200 nM; in assay [2], < 200 nM; in assay [3], 500 to 2000 nM.

For the compound `Nc1oc2c(-c3cc(F)nc(F)c3)nccc2c1Nc1ccc(F)c(Cl)c1` [Compound 191, N^3-(3-Chloro-4-fluorophenyl)-7-(2,6-difluoropyridin-4-yl)furo[2,3-c]pyridine-2,3-diamine], the results for the IC50 in assay [1], in assay [2] and in assay [3] were < 200 nM, < 200 nM and 500 to 2000 nM, respectively.

As for `Nc1oc2c(-c3ccncc3)nccc2c1Nc1ccc(F)c(C(F)(F)F)c1` [Compound 192, N^3-(4-Fluoro-3-(trifluoromethyl)phenyl)-7-(pyridin-4-yl)furo[2,3-c]pyridine-2,3-diamine], the IC50 in assay [1] is < 200 nM; in assay [2], < 200 nM; in assay [3], 500 to 2000 nM.

As to `CNC(=O)c1cc(-c2nccc3c(Nc4ccc(F)c(Cl)c4)c(N)oc23)ccn1` [Compound 195, 4-(2-Amino-3-((3-chloro-4-fluorophenyl)amino)furo[2,3-c]pyridin-7-yl)-N-methylpicolinamide], the figures for the IC50 in assay [1], in assay [2] and in assay [3] were < 200 nM, < 200 nM and 500 to 2000 nM, respectively.

With `COc1ccccc1-c1nccc2c(Nc3ccc(F)c(F)c3)c(N)oc12` [Compound 196, N^3-(3,4-Difluorophenyl)-7-(2-methoxyphenyl)furo[2,3-c]pyridine-2,3-diamine], the IC50 is 200 to 1000 nM in assay [1], < 200 nM in assay [2] and < 500 nM in assay [3].

In the case of `Nc1oc2c(-c3ccccc3Cl)nccc2c1Nc1ccc(F)c(F)c1` [Compound 197, 7-(2-Chlorophenyl)-N^3-(3,4-difluorophenyl)furo[2,3-c]pyridine-2,3-diamine], the IC50 was < 200 nM in assay [1], < 200 nM in assay [2] and < 500 nM in assay [3].

For the compound `Cc1cc(-c2nccc3c(Nc4ccc(F)c(F)c4)c(N)oc23)ccn1` [Compound 198, N^3-(3,4-Difluorophenyl)-7-(2-methylpyridin-4-yl)furo[2,3-c]pyridine-2,3-diamine], the IC50 in assay [1] is < 200 nM; in assay [2], < 200 nM; in assay [3], < 500 nM.
